According to patent publication US8357518B2, “Thermostable enzymes for the hydrolysis of mannan-containing polysaccharides” (The Board of Trustees of the University of Illinois, priority 2010, dated 2013):
Where a chain is given by its changes, count along the chain named.

Key:
Format in all cases: biochemical
[1] = target: T1, Caldanaerobius polysaccharolyticus endo-β-mannanase Man5B (SEQ ID NO: 31) variant E258Q (Caldanaerobius polysaccharolyticus, UniProt D9J0D7, E258Q); assay: Kinetic properties with pNP-linked sugars (Man5B E258Q); details: relative to wild type
T1 sequence (D9J0D7 1-330 E258Q): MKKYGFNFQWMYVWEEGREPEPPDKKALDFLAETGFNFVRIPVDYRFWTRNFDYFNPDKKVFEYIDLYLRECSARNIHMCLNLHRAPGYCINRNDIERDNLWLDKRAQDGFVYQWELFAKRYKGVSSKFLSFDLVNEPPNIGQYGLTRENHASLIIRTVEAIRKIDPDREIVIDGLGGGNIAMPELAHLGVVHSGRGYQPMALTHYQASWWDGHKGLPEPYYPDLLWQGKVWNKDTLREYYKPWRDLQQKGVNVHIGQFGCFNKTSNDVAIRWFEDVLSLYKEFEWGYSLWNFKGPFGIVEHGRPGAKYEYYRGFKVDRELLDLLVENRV
Method: (§1) Determination of kinetic properties for wild type and mutant Man5B with pNP-linked sugars. Kinetic properties of wild type and mutant Man5B were determined for pNP-β-D-mannopyranoside and pNP-β-D-cellobioside. The substrate concentrations ranged from 0.06 to 10 mM and reactions were performed at 65° C. in citrate buffer (50 mM sodium citrate, pH 5.5). The reactions were equilibrated to 65° C. using a thermostated Cary 300 UV-Vis spectrophotometer, and the reactions were initiated by the addition of wild type (5 nM, final concentration) or mutant (2 μM, final concentration) Man5B. The rate of pNP release was determined by continuously monitoring the absorbance at 400 nm. Initial rate data were then plotted against the substrate concentrations, and the values of the Michaelis-Menten constant (KM) and the maximum velocity (Vmax) were estimated from a nonlinear curve fit using GraphPad Prism v5.01 from GraphPad Software (San Diego, Calif.). The kcat was calculated as the quotient of the Vmax and the concentration of enzyme used in the reaction.
(§2) Site-directed mutagenesis. Mutagenesis was carried out using PCR-based […] […]
(§3) Next, to test whether the mutations introduced in Man5B had any effects on the catalytic activity of this enzyme, the catalytic parameters for the wild type and mutant enzymes were determined using pNP-β-D-cellobioside and pNP-β-D-mannopyranoside as substrates.

[2] = target: T2, Caldanaerobius polysaccharolyticus endo-β-mannanase Man5B (SEQ ID NO: 31) variant E137Q (Caldanaerobius polysaccharolyticus, UniProt D9J0D7, E137Q); assay: Kinetic properties with pNP-linked sugars (Man5B E137Q); details: relative to wild type
T2 sequence (D9J0D7 1-330 E137Q): T1 sequence (D9J0D7 1-330 E258Q) with E137Q, Q258E
Method: as §1, §2, §3

[3] = target: T3, Caldanaerobius polysaccharolyticus endo-β-mannanase Man5B, wild type, SEQ ID NO: 31 (Caldanaerobius polysaccharolyticus, UniProt D9J0D7); assay: Kinetic properties with pNP-linked sugars (Man5B wild type); details: reference
Method: The plasmid constructs were then introduced into E. coli BL-21 CodonPlus (DE3) RIL competent cells by heat shock, and grown overnight in lysogeny broth (LB) agar medium supplemented with ampicillin (100 μg/mL) and chloramphenicol (50 μg/mL) at 37° C. After 12 h, single colonies were selected and used to inoculate fresh LB (10 mL) supplemented with the antibiotics above at the same concentrations, followed by culturing with aeration for 8 h at 37° C. The pre-cultures were then inoculated into fresh LB (1 L) supplemented with ampicillin and chloramphenicol and the cultures were incubated at 37° C. with vigorous aeration (225 rpm/min). […] Aliquots of eluted fractions were analyzed by sodium dodecyl sulfate-polyacrylamide gel electrophoresis (SDS-PAGE) and protein bands were visualized by staining with Coomassie brilliant blue G-250. […] The UV absorbances of the protein solutions were recorded at 280 nm using a Nanoprop 1000 from Thermo Scientific (Waltham, Mass.) and the protein concentrations were calculated using the following extinction coefficients: Man5A-TM1, ε280 nm=189 mM^−1 cm^−1; Man5A-TM2, ε280 nm=113 mM^−1 cm^−1; Man5B, ε280 nm=103 mM^−1 cm^−1.
Determination of kinetic properties for wild type and mutant Man5B with pNP-linked sugars. Kinetic properties of wild type and mutant Man5B were determined for pNP-β-D-mannopyranoside and pNP-β-D-cellobioside. […]

[4] = target: T4, Caldanaerobius polysaccharolyticus endo-β-mannanase Man5B (SEQ ID NO: 31) variant E258A (Caldanaerobius polysaccharolyticus, UniProt D9J0D7, E258A); assay: Kinetic properties with pNP-linked sugars (Man5B E258A); details: relative to wild type
T4 sequence (D9J0D7 1-330 E258A): T1 sequence (D9J0D7 1-330 E258Q) with Q258A
Method: as §1, §2, §3

[5] = target: T5, Caldanaerobius polysaccharolyticus endo-β-mannanase Man5B (SEQ ID NO: 31) variant E137A (Caldanaerobius polysaccharolyticus, UniProt D9J0D7, E137A); assay: Kinetic properties with pNP-linked sugars (Man5B E137A); details: relative to wild type
T5 sequence (D9J0D7 1-330 E137A): T1 sequence (D9J0D7 1-330 E258Q) with E137A, Q258E
Method: as §1, §2, §3

[6] = target: T3, Caldanaerobius polysaccharolyticus endo-β-mannanase Man5B, wild type, SEQ ID NO: 31; assay: Catalytic efficiency with oligosaccharides, HPAEC (Man5B); details: value for GM3 higher than that for GM2
Method: Cloning, expression, and purification of Man5A-TM1, Man5A-TM2 and Man5B. C. polysaccharolyticus was cultured in TYG medium and DNA was isolated from mid-log cultures and purified using the Qiagen DNeasy Blood and Tissue kit with an integrated RNase treatment step. The genome of C. polysaccharolyticus was partially sequenced by the W. M. Keck Biotechnology Center at the University of Illinois at Urbana-Champaign. A Newbler assembly was generated which is comprised of ½ plate of FLX PE 454 data and ½ plate of 8 kb paired-end GSFLX Titanium data using a Genome Sequencer instrument from 454 Life Sciences (Branford, Conn.). The partial genome sequence was uploaded onto the Rapid Annotation using Subsystem Technology (RAST) server (Aziz et al., BMC Genomics, 9:75, 2008). Auto-annotation of the C. polysaccharolyticus partial genome sequence identified ORF0760 as a gene predicted to encode a bifunctional β-D-mannanase/endoglucanase (Man5B). Man5A was previously identified in a recombinant phage library of C. polysaccharolyticus genomic DNA, which was screened for endoglucanase activity (Cann et al., J Bacteriol, 181:1643, 1999) and the full sequence of this gene was also identified in the partial genome sequence for C. polysaccharolyticus. […]

T3 sequence (D9J0D7 entry or part of it): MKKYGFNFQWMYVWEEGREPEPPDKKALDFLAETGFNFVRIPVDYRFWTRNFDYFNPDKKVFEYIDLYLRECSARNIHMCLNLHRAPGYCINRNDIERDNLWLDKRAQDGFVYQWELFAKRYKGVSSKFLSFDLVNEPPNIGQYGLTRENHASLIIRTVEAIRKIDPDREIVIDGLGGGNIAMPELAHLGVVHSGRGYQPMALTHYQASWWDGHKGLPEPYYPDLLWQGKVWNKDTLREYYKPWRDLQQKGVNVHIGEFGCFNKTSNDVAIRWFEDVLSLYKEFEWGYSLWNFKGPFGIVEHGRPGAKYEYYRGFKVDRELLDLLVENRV

O=[N+]([O-])c1ccc(O[C@@H]2O[C@H](CO)[C@@H](O)[C@H](O)[C@@H]2O)cc1 [pNP-β-D-mannopyranoside]
rkcat (residual kcat) [1]: 0.03%
rkcat (residual kcat) [2]: 0.04%
rkcat (residual kcat) [3]: 100%
rkcat (residual kcat) [4]: 0.04%
rkcat (residual kcat) [5]: 0.04%

O=[N+]([O-])c1ccc(O[C@@H]2O[C@H](CO)[C@@H](O[C@@H]3O[C@H](CO)[C@@H](O)[C@H](O)[C@H]3O)[C@H](O)[C@H]2O)cc1 [pNP-cellobioside, pNP-β-D-cellobioside]
rkcat (residual kcat) [1]: 0.62%
rkcat (residual kcat) [2]: 1.96%
rkcat (residual kcat) [3]: 100%
rkcat (residual kcat) [4]: 0.55%
rkcat (residual kcat) [5]: 0.48%

OC[C@H]1O[C@H](OC[C@H]2OC(O)[C@@H](O)[C@@H](O)[C@@H]2O[C@@H]2O[C@H](CO)[C@@H](O[C@@H]3O[C@H](CO)[C@@H](O)[C@H](O)[C@@H]3O)[C@H](O)[C@@H]2O)[C@H](O)[C@@H](O)[C@H]1O (stereo partly drawn) [6-galactosyl-mannotriose, α-1,6-galactosyl-mannotriose]
catalytic efficiency (kcat/Km), GM3 relative to GM2 [6]: 20 fold
